pIC50: −log10 of the molar value.
Target: human Gal-3 (hGal-3) (Homo sapiens (Human), UniProt P17931)
Assay: competitive binding assay: binding of biotinylated hGal-3 to microplate-adsorbed asialofetuin (ASF), spectrophotometric
Conditions: Activity on hGal-3; mean values of several measurements
In short: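 Compounds in DMSO dilution series competed with 300-1000 ng/mL biotinylated hGal-3 for asialofetuin adsorbed on the plate (3 h, 4° C). Streptavidin-peroxidase at 80 ng/mL (1 h, 4° C) with ABTS gave a spectrophotometric read-out, and IC50 was reported as the mean of repeat runs.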

human Gal-3 (hGal-3), sequence (P17931 whole entry): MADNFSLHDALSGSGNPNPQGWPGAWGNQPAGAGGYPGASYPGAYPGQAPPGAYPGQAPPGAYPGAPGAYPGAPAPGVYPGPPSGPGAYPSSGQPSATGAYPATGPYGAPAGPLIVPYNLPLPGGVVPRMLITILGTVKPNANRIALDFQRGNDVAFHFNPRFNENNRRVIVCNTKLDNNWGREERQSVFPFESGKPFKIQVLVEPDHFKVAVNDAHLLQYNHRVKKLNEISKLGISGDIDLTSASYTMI

Row | Compound | pIC50
1 | CO[C@@H]1[C@@H](n2cc(-c3ccc(Br)c(F)c3F)nn2)[C@@H](O)[C@@H](CO)O[C@H]1C(=O)N(c1cc(F)cc(C#N)c1)[C@@H]1CC[C@H]1O [Example 2.12.7R, (2R,3R,4S,5R,6R)-4-(4-(4-bromo-2,3-difluorophenyl)-1H-1,2,3-triazol-1-yl)-N-(3-cyano-5-fluorophenyl)-5-hydroxy-N-((1R,2R)-2-hydroxycyclobutyl)-6-(hydroxymethyl)-3-methoxytetrahydro-2H-pyran-2-carboxamide] | 6.97
2 | CO[C@@H]1[C@@H](n2cc(-c3ccc(C#N)c(F)c3)nn2)[C@@H](O)[C@@H](CO)O[C@H]1C(=O)N(c1cc(Br)cc(C#N)c1)[C@H]1CC[C@@H]1O [Example 2.16.5, (2R,3R,4S,5R,6R)-N-(3-bromo-5-cyanophenyl)-4-(4-(4-cyano-3-fluorophenyl)-1H-1,2,3-triazol-1-yl)-5-hydroxy-N-((1S,2S)-2-hydroxycyclobutyl)-6-(hydroxymethyl)-3-methoxytetrahydro-2H-pyran-2-carboxamide] | 6.61
3 | CO[C@@H]1[C@@H](n2cc(-c3ccc(C#N)c(F)c3)nn2)[C@@H](O)[C@@H](CO)O[C@H]1C(=O)N(c1cc(Br)cc(C#N)c1)[C@@H]1CC[C@H]1O [Example 2.16.5R, (2R,3R,4S,5R,6R)-N-(3-bromo-5-cyanophenyl)-4-(4-(4-cyano-3-fluorophenyl)-1H-1,2,3-triazol-1-yl)-5-hydroxy-N-((1R,2R)-2-hydroxycyclobutyl)-6-(hydroxymethyl)-3-methoxytetrahydro-2H-pyran-2-carboxamide] | 6.09
4 | CO[C@@H]1[C@@H](n2cc(-c3cc(F)c(Cl)c(Cl)c3)nn2)[C@@H](O)[C@@H](CO)O[C@H]1C(=O)N(c1cc(Cl)cc(C#N)c1)[C@H]1CC[C@@H]1O [Example 2.17.4, (2R,3R,4S,5R,6R)-N-(3-chloro-5-cyanophenyl)-4-(4-(3,4-dichloro-5-fluorophenyl)-1H-1,2,3-triazol-1-yl)-5-hydroxy-N-((1S,2S)-2-hydroxycyclobutyl)-6-(hydroxymethyl)-3-methoxytetrahydro-2H-pyran-2-carboxamide] | 7.10
5 | CO[C@@H]1[C@@H](n2cc(-c3cc(F)c(Cl)c(Cl)c3)nn2)[C@@H](O)[C@@H](CO)O[C@H]1C(=O)N(c1cc(Cl)cc(C#N)c1)[C@@H]1CC[C@H]1O [Example 2.17.4R, (2R,3R,4S,5R,6R)-N-(3-chloro-5-cyanophenyl)-4-(4-(3,4-dichloro-5-fluorophenyl)-1H-1,2,3-triazol-1-yl)-5-hydroxy-N-((1R,2R)-2-hydroxycyclobutyl)-6-(hydroxymethyl)-3-methoxytetrahydro-2H-pyran-2-carboxamide] | 6.65
6 | CO[C@@H]1[C@@H](n2cc(-c3cc(F)c(Cl)c(Cl)c3)nn2)[C@@H](O)[C@@H](CO)O[C@H]1C(=O)N(c1cc(Br)cc(C#N)c1)[C@@H]1CC[C@H]1O [Example 2.17.5R, (2R,3R,4S,5R,6R)-N-(3-bromo-5-cyanophenyl)-4-(4-(3,4-dichloro-5-fluorophenyl)-1H-1,2,3-triazol-1-yl)-5-hydroxy-N-((1R,2R)-2-hydroxycyclobutyl)-6-(hydroxymethyl)-3-methoxytetrahydro-2H-pyran-2-carboxamide] | 6.60
7 | CC(=O)O[C@@H]1[C@@H](n2cc(-c3cc(F)c(F)c(F)c3)nn2)[C@@H](O)[C@@H](CO)O[C@H]1C(=O)N(c1cc(Cl)cc(C#N)c1)[C@@H]1CC[C@H]1O [Example 2A.1.4R, (2R,3R,4S,5R,6R)-2-((3-chloro-5-cyanophenyl)((1R,2R)-2-hydroxycyclobutyl)carbamoyl)-5-hydroxy-6-(hydroxymethyl)-4-(4-(3,4,5-trifluorophenyl)-1H-1,2,3-triazol-1-yl)tetrahydro-2H-pyran-3-yl acetate] | 7.09
8 | O=C([C@@H]1O[C@H](CO)[C@H](O)[C@H](n2cc(-c3cc(F)c(F)c(F)c3)nn2)[C@H]1O)N(c1cc(Cl)cc(Cl)c1)[C@H]1CC[C@@H]1O [Example 2H.1.2, (2R,3R,4S,5R,6R)-N-(3,5-dichlorophenyl)-3,5-dihydroxy-N-((1S,2S)-2-hydroxycyclobutyl)-6-(hydroxymethyl)-4-(4-(3,4,5-trifluorophenyl)-1H-1,2,3-triazol-1-yl)tetrahydro-2H-pyran-2-carboxamide] | 7.17

Now those with a higher pIC50, led by results:

Row | pIC50 | Compound
9 | 7.32 | CO[C@@H]1[C@@H](n2cc(-c3ccc(Br)c(F)c3F)nn2)[C@@H](O)[C@@H](CO)O[C@H]1C(=O)N(c1cc(F)cc(C#N)c1)[C@H]1CC[C@@H]1O [Example 2.12.7, (2R,3R,4S,5R,6R)-4-(4-(4-bromo-2,3-difluorophenyl)-1H-1,2,3-triazol-1-yl)-N-(3-cyano-5-fluorophenyl)-5-hydroxy-N-((1S,2S)-2-hydroxycyclobutyl)-6-(hydroxymethyl)-3-methoxytetrahydro-2H-pyran-2-carboxamide]
10 | 7.25 | CO[C@@H]1[C@@H](n2cc(-c3cc(F)c(Cl)c(Cl)c3)nn2)[C@@H](O)[C@@H](CO)O[C@H]1C(=O)N(c1cc(Br)cc(C#N)c1)[C@H]1CC[C@@H]1O [Example 2.17.5, (2R,3R,4S,5R,6R)-N-(3-bromo-5-cyanophenyl)-4-(4-(3,4-dichloro-5-fluorophenyl)-1H-1,2,3-triazol-1-yl)-5-hydroxy-N-((1S,2S)-2-hydroxycyclobutyl)-6-(hydroxymethyl)-3-methoxytetrahydro-2H-pyran-2-carboxamide]
11 | 7.54 | CC(=O)O[C@@H]1[C@@H](n2cc(-c3cc(F)c(F)c(F)c3)nn2)[C@@H](O)[C@@H](CO)O[C@H]1C(=O)N(c1cc(Cl)cc(Cl)c1)[C@H]1CC[C@@H]1O [Example 2A.1.2, (2R,3R,4S,5R,6R)-2-((3,5-dichlorophenyl)((1S,2S)-2-hydroxycyclobutyl)carbamoyl)-5-hydroxy-6-(hydroxymethyl)-4-(4-(3,4,5-trifluorophenyl)-1H-1,2,3-triazol-1-yl)tetrahydro-2H-pyran-3-yl acetate]
12 | 7.44 | CC(=O)O[C@@H]1[C@@H](n2cc(-c3cc(F)c(F)c(F)c3)nn2)[C@@H](O)[C@@H](CO)O[C@H]1C(=O)N(c1cc(Cl)cc(C#N)c1)[C@H]1CC[C@@H]1O [Example 2A.1.4, (2R,3R,4S,5R,6R)-2-((3-chloro-5-cyanophenyl)((1S,2S)-2-hydroxycyclobutyl)carbamoyl)-5-hydroxy-6-(hydroxymethyl)-4-(4-(3,4,5-trifluorophenyl)-1H-1,2,3-triazol-1-yl)tetrahydro-2H-pyran-3-yl acetate]
13 | 7.47 | N#Cc1cc(Cl)cc(N(C(=O)[C@@H]2O[C@H](CO)[C@H](O)[C@H](n3cc(-c4cc(F)c(F)c(F)c4)nn3)[C@H]2O)[C@H]2CC[C@@H]2O)c1 [Example 2H.1.4, (2R,3R,4S,5R,6R)-N-(3-chloro-5-cyanophenyl)-3,5-dihydroxy-N-((1S,2S)-2-hydroxycyclobutyl)-6-(hydroxymethyl)-4-(4-(3,4,5-trifluorophenyl)-1H-1,2,3-triazol-1-yl)tetrahydro-2H-pyran-2-carboxamide]
14 | 7.53 | (2R,3R,4S,5R,6R)-N-(3,5-dichlorophenyl)-3,5-dihydroxy-N-((1S,2S)-2-hydroxycyclopentyl)-6-(hydroxymethyl)-4-(4-(3,4,5-trifluorophenyl)-1H-1,2,3-triazol-1-yl)tetrahydro-2H-pyran-2-carboxamide [Example 1H.1.2]

Reference: patent publication US20230348442A1, “GALECTIN-3 INHIBITING 2-HYDROXYCYCLOALKANE-1-CARBAMOYL DERIVATIVES” (Idorsia Pharmaceuticals Ltd, priority 2020, published 2023)
